These results are taken from ChEMBL document CHEMBL1201862, “PubChem BioAssay data set” (2004).

Among the test systems are LOX IMVI; HT-29; SR; CCRF-CEM; SF-539; SK-MEL-5; OVCAR-8; SNB-75; 786-0; SW-620; MDA-N; CAKI-1; U-251; SK-MEL-2; SF-268; NCI/ADR-RES; UO-31; UACC-62; MDA-MB-231; MDA-MB-435.
Test in all cases: NCI-60 cell line screen, 48 h

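Results reflect a 48-hour exposure of cells in 96-well plates to compound at five concentrations. GI50 is the concentration that inhibits growth by half.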 Activity calls are given as the source filed them. No stated cut-off is given here; in the data, active = GI50 up to about 1.1 µM and inactive = higher. Some results are limits rather than exact numbers.

As for `Cc1cc(S(=O)(=O)Nc2nc(N)nc(N(C)C)n2)c(S)cc1Cl`, the GI50 in the experiment with LOX IMVI, with HT-29, in the experiment on SR, in the experiment with CCRF-CEM, with SF-539 and with SK-MEL-5 was > 10 µM (inactive) each time. Moreover, the GI50 in the experiment on OVCAR-8, in the experiment with SNB-75, in the experiment on 786-0, in the experiment with SW-620, in the experiment with MDA-N and in the experiment with CAKI-1 was > 10 µM (inactive) each time. Also, the GI50 with U-251, in the experiment on SK-MEL-2, in the experiment with SF-268, in the experiment with NCI/ADR-RES and in the experiment with UO-31 was > 10 µM (inactive) in each case.

For `COc1ccc(C(=O)O/N=C2/CCC/C2=C\c2ccccc2)cc1`, the GI50 was > 100 µM (inactive) with LOX IMVI; > 100 µM (inactive) in the experiment on HT-29; > 100 µM (inactive) with SR; > 100 µM (inactive) in the experiment on CCRF-CEM; > 59.3 µM (inactive) in the experiment on SF-539; > 100 µM (inactive) in the experiment on SK-MEL-5. Also, the GI50 is > 100 µM (inactive) in the experiment on OVCAR-8; > 43.3 µM (inactive) in the experiment on SNB-75; > 72.3 µM (inactive) with 786-0; > 100 µM (inactive) in the experiment with UACC-62; > 100 µM (inactive) in the experiment with SW-620; > 100 µM (inactive) in the experiment with CAKI-1. For the same compound, the GI50 with U-251 is > 70.3 µM (inactive); with SK-MEL-2 it was > 100 µM (inactive); in the experiment with SF-268 it was > 81.8 µM (inactive); in the experiment with UO-31, > 100 µM (inactive).

Consider `CCOC(=O)/C(=C\c1ccc(O)c(OC)c1)C(=O)c1ccccc1`, for which the GI50 is 7.21 µM (inactive) in the experiment with LOX IMVI; 24.7 µM (inactive) with HT-29; 11 µM (inactive) with SR; 7.5 µM (inactive) in the experiment with CCRF-CEM; 13.8 µM (inactive) in the experiment on SF-539; 13.3 µM (inactive) with SK-MEL-5. The GI50 in the experiment on OVCAR-8 was 11.7 µM (inactive); in the experiment with SNB-75 it was 20.2 µM (inactive); in the experiment with 786-0, 16.7 µM (inactive); with UACC-62 it was 13.7 µM (inactive); in the experiment with SW-620, 13.1 µM (inactive); in the experiment on CAKI-1, 23.9 µM (inactive). The GI50 with U-251 is 13.5 µM (inactive); with SK-MEL-2, 12.5 µM (inactive); in the experiment on SF-268, 9.62 µM (inactive); in the experiment on UO-31, 23 µM (inactive).

As to `O=C(CC(Cl)(Cl)C(Cl)(Cl)Cl)c1ccccc1`, the GI50 in the experiment on LOX IMVI was 1.83 µM (inactive); in the experiment with HT-29, 2.06 µM (inactive); with SR, 2.04 µM (inactive); in the experiment on SF-539, 16.2 µM (inactive); in the experiment with SK-MEL-5 it was 12 µM (inactive); in the experiment with MDA-MB-231 it was 2.11 µM (inactive). Moreover, the GI50 in the experiment on OVCAR-8 is 2.59 µM (inactive); with SNB-75, 15.3 µM (inactive); with 786-0, 3.01 µM (inactive); with UACC-62 it was 2.74 µM (inactive); in the experiment with SW-620, 3.51 µM (inactive); with CAKI-1, 2.3 µM (inactive). The GI50 is 4.7 µM (inactive) in the experiment on U-251; 2.23 µM (inactive) in the experiment with MDA-MB-435; 10.1 µM (inactive) in the experiment with SK-MEL-2; 11.7 µM (inactive) in the experiment on SF-268; 5.26 µM (inactive) in the experiment on NCI/ADR-RES; 3.94 µM (inactive) with UO-31.

Take `COC(=O)C1=C(SC)SC2(C(=O)OC)C3C=C(C)C4C(N13)C42C(=O)OC` (centres undefined): the GI50 is > 100 µM (inactive) in the experiment with LOX IMVI; > 100 µM (inactive) with HT-29; > 100 µM (inactive) with SR; > 100 µM (inactive) in the experiment on CCRF-CEM; > 100 µM (inactive) in the experiment with SF-539; 83.6 µM (inactive) in the experiment with SK-MEL-5. Further, the GI50 with OVCAR-8, in the experiment with SNB-75, in the experiment on 786-0, in the experiment with UACC-62, with SW-620 and in the experiment with CAKI-1 was > 100 µM (inactive) throughout. The GI50 in the experiment with U-251, in the experiment with SK-MEL-2, in the experiment with SF-268 and in the experiment on UO-31 was > 100 µM (inactive) in each case.

For `O=S1(=O)c2ccccc2N(c2ccccc2)c2nnnn21`, the GI50 in the experiment on LOX IMVI was 16.7 µM (inactive); in the experiment on HT-29 it was 20.6 µM (inactive); with CCRF-CEM, 3.86 µM (inactive); in the experiment on SF-539, 18.7 µM (inactive); with SK-MEL-5 it was 34.4 µM (inactive); with MDA-MB-231 it was 25.6 µM (inactive). The GI50 in the experiment with OVCAR-8 is 30.1 µM (inactive); in the experiment with 786-0, 17.1 µM (inactive); in the experiment with UACC-62, 15.7 µM (inactive); with SW-620, 22.3 µM (inactive); in the experiment on CAKI-1, 17.6 µM (inactive); with U-251, 32.7 µM (inactive). Besides, the GI50 with MDA-MB-435 was 29.4 µM (inactive); with SK-MEL-2 it was 40.4 µM (inactive); in the experiment with SF-268, 34.7 µM (inactive); with NCI/ADR-RES, 31.4 µM (inactive); in the experiment on UO-31, 39.5 µM (inactive).

For the compound `CCOC(=O)Nc1ccc(S(=O)(=O)I)cc1.CCOC(=O)Nc1ccc(S(=O)(=O)I)cc1.CNC(=O)N=O.NC(=O)OCCCl`, the GI50 in the experiment with LOX IMVI is > 100 µM (inactive); in the experiment with HT-29, 69 µM (inactive); in the experiment on SR, > 100 µM (inactive); in the experiment on CCRF-CEM, 74.8 µM (inactive); in the experiment with SF-539, > 100 µM (inactive); in the experiment on SK-MEL-5, > 100 µM (inactive). The GI50 was > 100 µM (inactive) with OVCAR-8; 21.9 µM (inactive) in the experiment with SNB-75; > 100 µM (inactive) in the experiment with 786-0; 73.6 µM (inactive) in the experiment on UACC-62; 61.8 µM (inactive) with SW-620; > 100 µM (inactive) in the experiment with CAKI-1. In addition, the GI50 is > 100 µM (inactive) with U-251, 43.6 µM (inactive) in the experiment on SK-MEL-2, > 100 µM (inactive) in the experiment with SF-268 and > 100 µM (inactive) with UO-31.

Take `COc1c(Br)cc(/C=C(\C#N)c2ccccn2)cc1Br`: the GI50 in the experiment on HT-29 is > 100 µM (inactive); in the experiment with SR, > 100 µM (inactive); in the experiment with CCRF-CEM it was > 100 µM (inactive); with SF-539, 33.4 µM (inactive); in the experiment with SK-MEL-5, > 100 µM (inactive); with OVCAR-8, 34.5 µM (inactive). In addition, the GI50 in the experiment on SNB-75 was 0.891 µM (active); with 786-0, 4.09 µM (inactive); with UACC-62, 10.8 µM (inactive); in the experiment on SW-620, > 100 µM (inactive); with MDA-N it was > 10 µM (inactive); in the experiment on CAKI-1, > 100 µM (inactive). Also, the GI50 with U-251 is 13.3 µM (inactive); in the experiment with SK-MEL-2, 13.8 µM (inactive); with SF-268 it was 23.2 µM (inactive); in the experiment with NCI/ADR-RES it was 39.4 µM (inactive); in the experiment with UO-31, > 100 µM (inactive).

As for `Cc1cc(O)no1` [HYMEXAZOL], the GI50 with LOX IMVI, with HT-29, with SF-539, with MDA-MB-231, with OVCAR-8 and with SNB-75 was > 100 µM (inactive) in each case. Moreover, the GI50 in the experiment with 786-0, in the experiment with UACC-62, in the experiment with SW-620, in the experiment on CAKI-1, with U-251 and in the experiment on MDA-MB-435 was > 100 µM (inactive) throughout. In addition, the GI50 in the experiment on SK-MEL-2, in the experiment on SF-268, in the experiment with NCI/ADR-RES and in the experiment on UO-31 was > 100 µM (inactive) throughout.
